# How the values were obtained:
# Experiment in all cases: relative viability (nuclei count vs DMSO), 5 days (fraction); higher = more cells survive
# [1] = compound: C1CC(C1)(C(=O)O)C(=O)O.[NH2-].[NH2-].[Pt+2] [Carboplatin] + CC(=O)c1c(C)c2cnc(Nc3ccc(N4CCNCC4)cn3)nc2n(C2CCCC2)c1=O [Palbociclib] (partner 0.5 µM)
# Outline: (§1)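 Medians of duplicate plates are given as relative viability. That measure is the nuclei count in treated wells divided by the count in vehicle wells. Counts were taken on 4× images of lung cancer cell lines in 1536-well plates, 5 days after pin-tool dosing the day after seeding with one drug alone or a fixed anchor-drug dose plus five library-drug doses (not always all listed) in √10 steps.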
# Carboplatin + Dasatinib = compound: C1CC(C1)(C(=O)O)C(=O)O.[NH2-].[NH2-].[Pt+2] [Carboplatin] + Cc1nc(Nc2ncc(C(=O)Nc3c(C)cccc3Cl)s2)cc(N2CCN(CCO)CC2)n1 [Dasatinib] (partner 0.075 µM)
# Outline: as §1
# GSK126 + OSI-027 = compound: CC[C@H](C)N1C=C(C2=C(C=C(C=C21)C3=CN=C(C=C3)N4CCNCC4)C(=O)NCC5=C(C=C(NC5=O)C)C)C [GSK126] + COc1cccc2cc(-c3nc([C@H]4CC[C@H](C(=O)O)CC4)n4ncnc(N)c34)[nH]c12 [OSI-027] (partner 0.5 µM)
# Outline: as §1
# GSK126 + AZD7762 = compound: CC[C@H](C)N1C=C(C2=C(C=C(C=C21)C3=CN=C(C=C3)N4CCNCC4)C(=O)NCC5=C(C=C(NC5=O)C)C)C [GSK126] + NC(=O)Nc1cc(-c2cccc(F)c2)sc1C(=O)N[C@H]1CCCNC1 [AZD7762] (partner 0.2 µM)
# Outline: as §1
Cell Line,relative viability ([1]; first compound 0.08 µM),relative viability ([1]; first compound 0.253 µM),relative viability ([1]; first compound 0.8 µM),relative viability ([1]; first compound 2.53 µM),relative viability ([1]; first compound 8 µM),relative viability (Carboplatin + Dasatinib; first compound 0.08 µM),relative viability (Carboplatin + Dasatinib; first compound 0.253 µM),relative viability (Carboplatin + Dasatinib; first compound 0.8 µM),relative viability (Carboplatin + Dasatinib; first compound 2.53 µM),relative viability (Carboplatin + Dasatinib; first compound 8 µM),relative viability (GSK126 + OSI-027; first compound 0.08 µM),relative viability (GSK126 + OSI-027; first compound 0.253 µM),relative viability (GSK126 + OSI-027; first compound 0.8 µM),relative viability (GSK126 + OSI-027; first compound 2.53 µM),relative viability (GSK126 + OSI-027; first compound 8 µM),relative viability (GSK126 + AZD7762; first compound 0.08 µM),relative viability (GSK126 + AZD7762; first compound 0.253 µM),relative viability (GSK126 + AZD7762; first compound 0.8 µM),relative viability (GSK126 + AZD7762; first compound 2.53 µM),relative viability (GSK126 + AZD7762; first compound 8 µM)
201T,0.374,0.356,0.37,0.336,0.362,0.575,0.571,0.569,0.487,0.576,0.822,0.772,0.736,0.865,0.759,0.704,0.622,0.617,0.65,0.567
A-427,0.585,0.509,0.542,0.484,0.488,0.728,0.772,0.716,0.704,0.657,0.491,0.515,0.43,0.409,0.456,0.82,0.703,0.667,0.825,0.542
ABC-1,0.976,0.805,0.886,0.651,0.504,0.654,0.639,0.522,0.546,0.458,0.462,0.525,0.532,0.492,0.539,0.587,1.04,0.95,0.886,0.916
BEN,0.467,0.442,0.488,0.44,0.494,0.339,0.296,0.284,0.319,0.228,0.324,0.349,0.281,0.288,0.287,0.718,0.605,0.785,0.744,0.612
CAL-12T,0.402,0.514,0.506,0.483,0.406,0.375,0.502,0.419,0.521,0.372,0.78,0.576,0.767,0.67,0.819,0.751,0.562,0.622,0.554,0.589
COR-L23,0.32,0.303,0.226,0.196,0.123,0.51,0.536,0.436,0.373,0.216,1,0.725,0.645,0.824,0.694,,,,,
COR-L 105,0.442,0.427,0.384,0.379,0.414,0.364,0.351,0.37,0.293,0.297,0.694,0.666,0.616,0.72,0.771,,,,,
ChaGo-K-1,0.913,0.937,0.837,0.749,0.535,0.559,0.61,0.612,0.477,0.309,0.609,0.611,0.562,0.545,0.544,0.881,0.87,0.836,0.893,0.874
EKVX,0.364,0.513,0.385,0.354,0.341,0.603,0.582,0.48,0.446,0.495,0.753,0.679,0.669,0.822,0.781,0.648,0.747,0.753,0.787,0.672
EMC-BAC-2,0.533,0.516,0.525,0.536,0.469,0.327,0.343,0.305,0.271,0.281,0.398,0.381,0.397,0.379,0.373,1.05,1.1,1.1,1.09,1.04
EPLC-272H,0.352,0.325,0.32,0.327,0.359,0.455,0.342,0.326,0.365,0.399,0.295,0.309,0.318,0.353,0.303,0.272,0.296,0.209,0.262,0.112
H3255,0.303,0.303,0.308,0.275,0.306,0.367,0.416,0.418,0.415,0.334,0.573,0.568,0.578,0.666,0.583,1.08,0.887,0.938,1.05,0.788
HARA,0.311,0.344,0.204,0.225,0.308,0.205,0.252,0.209,0.213,0.302,0.543,0.541,0.476,0.466,0.392,0.379,0.397,0.4,0.266,0.203
HCC-15,0.751,0.721,0.702,0.615,0.575,0.69,0.645,0.621,0.591,0.407,0.752,0.687,0.696,0.713,0.695,1.36,1.17,1.12,0.645,1.07
HCC-44,0.994,0.975,1,0.859,0.89,,,,,,0.623,0.624,0.595,0.562,0.706,1.04,1.12,0.99,0.983,1.01
HCC-78,0.446,0.495,0.491,0.464,0.433,0.576,0.425,0.372,0.416,0.489,0.359,0.379,0.384,0.373,0.396,0.675,0.652,0.604,0.832,0.736
HCC-366,0.484,0.401,0.339,0.233,0.152,0.609,0.619,0.624,0.594,0.403,1.2,0.754,0.868,0.927,0.847,0.33,0.251,0.201,0.293,0.177

# — the supplement of paper PMC10307832
